According to patent US10941121B2 (AZIENDA OSPEDALIERA UNIVERSITARIA SENESE, priority 2015, dated 2021):
Read-outs that look alike come from different tables or passages of the source.

What was measured:
[1] = Cytotoxicity in PBMC, CellTiter 96 MTS viability assay; type: cell-based; settings: human, human primary PBMCs
[2] = Parallel Artificial Membrane Permeability Assay (PAMPA); type: in vitro ADME
[3] = test system: Hepatitis C Virus (HCV) replicon system; experiment: HCV replicon system, luciferase method in LucUbiNeo-ET cells
[4] = Cytotoxicity in Huh7 cells, nuclei counts; settings: human
DDX1 = molecular target: T1, DDX1 (Homo sapiens, UniProt Q92499); experiment: Selectivity of 20a: DDX1; type: biochemical; settings: >200 = less than 20% of inhibition at 200 μM, the highest concentration tested
T1 sequence (Q92499 1-740): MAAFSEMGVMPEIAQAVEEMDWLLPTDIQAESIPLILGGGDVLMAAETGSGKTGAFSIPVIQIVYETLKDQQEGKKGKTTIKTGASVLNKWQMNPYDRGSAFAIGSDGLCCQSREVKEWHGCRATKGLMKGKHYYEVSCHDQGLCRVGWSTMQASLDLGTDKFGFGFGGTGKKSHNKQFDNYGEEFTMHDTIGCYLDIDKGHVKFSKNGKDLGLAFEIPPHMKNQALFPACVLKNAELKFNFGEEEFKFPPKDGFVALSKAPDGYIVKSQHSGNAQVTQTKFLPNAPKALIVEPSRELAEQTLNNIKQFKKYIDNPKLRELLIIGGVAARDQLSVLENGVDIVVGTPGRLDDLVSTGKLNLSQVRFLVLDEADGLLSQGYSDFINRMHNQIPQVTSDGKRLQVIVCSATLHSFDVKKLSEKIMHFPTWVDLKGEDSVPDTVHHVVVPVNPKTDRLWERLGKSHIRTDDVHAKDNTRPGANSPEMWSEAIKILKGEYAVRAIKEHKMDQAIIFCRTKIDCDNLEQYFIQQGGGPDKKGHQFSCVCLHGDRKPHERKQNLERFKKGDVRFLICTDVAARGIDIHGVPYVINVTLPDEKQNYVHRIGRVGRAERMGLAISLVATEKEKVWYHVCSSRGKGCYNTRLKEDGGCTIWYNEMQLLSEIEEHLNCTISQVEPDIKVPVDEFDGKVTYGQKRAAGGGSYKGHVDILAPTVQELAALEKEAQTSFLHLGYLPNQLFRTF

Water Solubility Assay = type: physicochemical; settings: thermodynamic from solid
[5] = Cytotoxicity, MTT method in LUNET cells; type: cell-based; settings: human; MMT method in LUNET cells; read-out: CC50 (μM) non-infected cells
Method: Toxicity (CC50) was analysed in the Lunet/HuH7 cells by the addition of 10 μL of MTT (3-(4,5-dimethylthiazol-2-yl)-2,5-diphenyltetrazolium bromide) per well. After 4 h of incubation at 37° C. in a humidified atmosphere with 5% CO2, the amount of formazan produced was quantified spectrophotometrically at 550/620 nm (C. Pannecouque et al, Nature protocol 2008; 3 (3): 427-434). […] These assays were done in duplicate.

[6] = Cytotoxicity, MTT method in HuH7.5 cells; type: cell-based; settings: human, non-infected, read-out: HCV CC50
Method: After 4 h of incubation at 37° C. in a humidified atmosphere with 5% CO2, the amount of formazan produced was quantified spectrophotometrically at 550/620 nm (C. Pannecouque et al, Nature protocol 2008; 3 (3): 427-434). […] These assays were done in duplicate.

ATPase DDX3 = molecular target: T2, ATPase DDX3 (Homo sapiens, UniProt O00571); experiment: Selectivity of 20a: ATPase DDX3; type: biochemical; settings: >200 = less than 20% of inhibition at 200 μM, the highest concentration tested
T2 construct: made in house; host or cells: E. coli
T2 sequence (O00571 whole entry): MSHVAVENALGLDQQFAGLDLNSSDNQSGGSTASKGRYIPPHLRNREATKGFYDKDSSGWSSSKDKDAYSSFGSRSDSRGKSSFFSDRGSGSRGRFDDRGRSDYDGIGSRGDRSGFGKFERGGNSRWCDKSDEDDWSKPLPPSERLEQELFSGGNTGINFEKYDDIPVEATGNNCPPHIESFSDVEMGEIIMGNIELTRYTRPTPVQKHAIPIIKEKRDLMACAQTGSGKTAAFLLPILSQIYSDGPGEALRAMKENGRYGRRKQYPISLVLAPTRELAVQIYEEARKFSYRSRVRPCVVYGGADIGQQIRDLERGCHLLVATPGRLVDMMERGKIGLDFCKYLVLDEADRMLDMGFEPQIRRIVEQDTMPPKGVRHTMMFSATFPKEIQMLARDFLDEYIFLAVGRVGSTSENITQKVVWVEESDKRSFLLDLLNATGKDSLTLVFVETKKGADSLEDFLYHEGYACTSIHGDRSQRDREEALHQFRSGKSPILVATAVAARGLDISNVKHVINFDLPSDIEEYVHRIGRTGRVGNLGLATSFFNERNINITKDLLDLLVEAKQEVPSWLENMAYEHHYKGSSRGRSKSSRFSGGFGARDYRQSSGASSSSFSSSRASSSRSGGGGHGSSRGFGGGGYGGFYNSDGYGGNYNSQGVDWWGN

For `CCCCc1cn(-c2ccc(NC(=O)Nc3ccccc3C)cc2)nn1` [Compound 20a, 1-(4-(4-butyl-1H-1,2,3-triazol-1-yl)phenyl)-3-o-tolylurea], the CC50 at 24 h ([1]; 24 h) was > 1000 µM, the CC50 at 48 h ([1]; 48 h) was > 1000 µM and the CC50 at 72 h ([1]; 72 h) was > 1000 µM. The Papp at 5 h, 0.5 mM ([2]; PAMPA, phosphatidylcholine in dodecane, pH 7.4, 5 h, room temperature, read-out: PAMPA Papp *10^−6 (cm/s) GI) was 2.86 ×10⁻⁶ cm/s, the “PAMPA membrane retention (RM %)” value ([2]; value in brackets in the PAMPA cell) was 19.1% and the “activity against HCV, in words” value [3] was “best activity”. The EC50 ([3]; Hepatitis C virus, 48 h, read-out: EC50 (μM) HCV replicon system) was 0.97 µM, the CC50 at 48 h ([4]; DENV CC50, Huh7 cells, DENV experiment) was > 787 µM and the CC50 at 48 h ([4]; WNV CC50, Huh7 cells, WNV experiment) was > 500 µM. The IC50 (DDX1) was > 200 µM, the solubility (Water Solubility Assay; experimental aqueous solubility, read-out: LogS (converted)) was 0.0891 µM and the solubility (Water Solubility Assay; room temperature, 24-36 h, read-out: Aq. Solub.) was 0.135 µg/mL. For the same molecule, the CC50 [5] was 49.8 µM, the CC50 [6] was 10.1 µM and the IC50 (ATPase DDX3) was > 200 µM.
